# Test results: ChEMBL document CHEMBL3244226, “5-Cyano-2'-deoxyuridine 5'-phosphate: a potent competitive inhibitor of thymidylate synthetase” (J Med Chem, 1979)
# Activity calls are given as the source filed them. No cut-off for these calls is given here.
# What was measured:
# [1] = molecular target: T1, Thymidylate synthase (Lactobacillus casei, UniProt P00469); assay: Competitive inhibition of thymidylate synthase purified from methotrexate-resistant Lactobacillus casei using 2'-deoxy[5-3H]uridine 5'-phosphate by radioisotope assay; design: species or system Lacticaseibacillus casei
# T1 sequence (P00469 whole entry): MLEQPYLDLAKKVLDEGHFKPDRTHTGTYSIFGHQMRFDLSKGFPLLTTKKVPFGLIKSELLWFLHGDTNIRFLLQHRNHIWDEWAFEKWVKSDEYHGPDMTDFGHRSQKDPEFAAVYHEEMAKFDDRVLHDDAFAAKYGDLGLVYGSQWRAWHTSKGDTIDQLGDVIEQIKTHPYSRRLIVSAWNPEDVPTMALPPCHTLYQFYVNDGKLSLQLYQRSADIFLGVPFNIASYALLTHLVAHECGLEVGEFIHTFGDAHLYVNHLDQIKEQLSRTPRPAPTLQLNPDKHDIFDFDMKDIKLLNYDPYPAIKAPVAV
# [2] = molecular target: T2, Thymidylate synthase (Lactobacillus casei) (UniProt P00469); assay: Irreversible inhibition of thymidylate synthase purified from methotrexate-resistant Lactobacillus casei using 2'-deoxy[5-3H]uridine 5'-phosphate preincubated at 4 uM for 12 mins in absence of co-factor; conditions: Lacticaseibacillus casei
# T2 sequence (whole entry): T1 sequence (P00469 whole entry)
Compound,Ki [1] [nM],inhibition [2]
O=c1[nH]c(=O)n([C@H]2C[C@H](O)[C@@H](COP(=O)(O)O)O2)cc1[N+](=O)[O-],29,–
O=c1[nH]c(=O)n([C@H]2C[C@H](O)[C@@H](COP(=O)(O)O)O2)cc1S,40,–
N#Cc1cn([C@H]2C[C@H](O)[C@@H](COP(=O)(O)O)O2)c(=O)[nH]c1=O,550,inactive
